Results: patent US11602567B2, “Methods for modulating RNA splicing” (PTC Therapeutics, Inc., priority 2015, dated 2023)

How the values were obtained:
Assay in all cases: Endpoint RT-PCR analysis of alternatively spliced mRNAs in cultured cells
Format in all cases: cell-based, human
LARP7 exon 1 = settings: LARP7 exon 1, sequence CGGAgtaagt; GM03813 cells, 24 hours; without compound 0
Experimental: (§1) Endpoint RT-PCR Analysis of Alternatively Spliced mRNAs in Cultured Cells GM03813 cells derived from a patient with SMA type I (Coriell Institute) were plated at 5,000 cells/well in 200 μl DMEM with 10% FBS in 96-well plates, and incubated for 6 hours in a cell culture incubator (37° C., 5% CO2, 100% relative humidity). Cells were then treated with Compound 702 at different concentrations (in 0.5% DMSO) in duplicate for 24 hours. After removal of the supernatant, cells were lysed in Cells-To-Ct lysis buffer (Life Technologies, Inc.). Reverse transcription was performed using 5 μl of cell lysate and the iScript RT enzyme kit (Bio-Rad Laboratories, Inc). PCR was performed using 5 μl of cDNA and Platinum Taq HiFi DNA Polymerase (Life Technologies, Inc.) under the following PCR conditions: Step 1: 94° C. (2 min), Step 2: 94° C. (30 sec), Step 3: 55° C. (30 sec), Step 4: 68° C. (1 min), then repeat Steps 2 to 4 for 33 cycles, then hold at 4° C. PCR products were separated on 2% agarose E-gels, stained with ethidium bromide and visualized using a gel imager (UVP). [table]

COL5A2 exon 13 = settings: COL5A2 exon 13, sequence CCGAgtaagt; GM03813 cells, 24 hours; without compound 100
Experimental: as §1

PRKDC exon 51 = settings: PRKDC exon 51, sequence GCGAgtacgt; GM03813 cells, 24 hours; without compound 100
Experimental: as §1

GGCT exon 2 = settings: GGCT exon 2, sequence ATGAgtaggt; GM03813 cells, 24 hours; without compound 40
Experimental: as §1

[1] = test system: FOXM1 exon 7A […]C (34 nucleotides); settings: sequence ATGAgtaagt, GM03813 cells, 24 hours, without compound 0
Experimental: as §1

FADS2 exon 6 = settings: FADS2 exon 6, sequence CTGAgtaagt; GM03813 cells, 24 hours; without compound 100
Experimental: as §1

COL1A1 exon 32 = settings: COL1A1 exon 32, sequence CAGAgtaagt; GM03813 cells, 24 hours; without compound 90
Experimental: as §1

COL5A2 exon 32 = settings: COL5A2 exon 32, sequence TAGAgtaagt; GM03813 cells, 24 hours; without compound 100
Experimental: as §1

VPS29 exon 2 = settings: VPS29 exon 2, sequence CAGAgtaagt; GM03813 cells, 24 hours; without compound 40
Experimental: as §1

COL1A2 exon 21 = settings: COL1A2 exon 21, sequence GAGAgtaggt; GM03813 cells, 24 hours; without compound 100
Experimental: as §1

COL1A2 exon 30 = settings: COL1A2 exon 30, sequence AAGAgtaagt; GM03813 cells, 24 hours; without compound 100
Experimental: as §1

LARP7 exon 2 = settings: LARP7 exon 2, sequence AAGAgtaaga; GM03813 cells, 24 hours; without compound 10
Experimental: as §1

COL3A1 exon 46 = settings: COL3A1 exon 46, sequence CAGAgtaagt; GM03813 cells, 24 hours; without compound 100
Experimental: as §1

COL1A1 exon 11 = settings: COL1A1 exon 11, sequence CAGAgtgagt; GM03813 cells, 24 hours; without compound 100
Experimental: as §1

COL5A2 exon 34 = settings: COL5A2 exon 34, sequence CAGAgtaagt; GM03813 cells, 24 hours; without compound 100
Experimental: as §1

RCC 1 exon 4 = settings: RCC 1 exon 4, sequence AGAGgtaaga; GM03813 cells, 24 hours; without compound 90
Experimental: as §1

APLP2 exon 7 = settings: APLP2 exon 7, sequence ATGAgtaagt; GM03813 cells, 24 hours; without compound 10
Experimental: as §1

ARMCX6 exon 3 = settings: ARMCX6 exon 3, sequence TAGAgtatga; GM03813 cells, 24 hours; without compound 0
Experimental: as §1

LAMA2 exon 5 = settings: LAMA2 exon 5, sequence AAGAgtaagt; GM03813 cells, 24 hours; without compound 100
Experimental: as §1

COL5A2 exon 35 = settings: COL5A2 exon 35, sequence AAGAgtaagt; GM03813 cells, 24 hours; without compound 100
Experimental: as §1

[2] = test system: FOXM1 exon 7A (114 nucleotides); settings: sequence ATCAgtaagt, GM03813 cells, 24 hours, without compound 0
Experimental: as §1

MADD exon 21 = settings: MADD exon 21, sequence CAGAgtaagg; GM03813 cells, 24 hours; without compound 0
Experimental: as §1

COL3A1 exon 10 = settings: COL3A1 exon 10, sequence CAGAgtaagt; GM03813 cells, 24 hours; without compound 100
Experimental: as §1

DIAPH3 exon 11 = settings: DIAPH3 exon 11, sequence TTGAatatcc; GM03813 cells, 24 hours; without compound 100
Experimental: as §1

COL5A2 exon 49 = settings: COL5A2 exon 49, sequence AAGAgtaagt; GM03813 cells, 24 hours; without compound 90
Experimental: as §1

COL1A1 exon 5 = settings: COL1A1 exon 5, sequence AGGAgtaagt; GM03813 cells, 24 hours; without compound 0
Experimental: as §1

COL1A2 exon 22 = settings: COL1A2 exon 22, sequence CAGAgtaagt; GM03813 cells, 24 hours; without compound 100
Experimental: as §1

ERGIC3 exon 8 = settings: ERGIC3 exon 8, sequence GAGAgtaagt; GM03813 cells, 24 hours; without compound 0
Experimental: as §1

COL1A1 exon 46 = settings: COL1A1 exon 46, sequence CCGAgtaagt; GM03813 cells, 24 hours; without compound 100
Experimental: as §1

SMN2 exon 7 = settings: SMN2 exon 7, sequence AGGAgtaagt; GM03813 cells, 24 hours; % inclusion of exon without compound 40
Experimental: as §1

STRN3 exon 8 = settings: STRN3 exon 8, sequence AAGAgtaagt; GM03813 cells, 24 hours; without compound 10
Experimental: as §1

SMN2 exon 5 = settings: SMN2 exon 5, sequence ACCAgtaagt; GM03813 cells, 24 hours; without compound 50
Experimental: as §1

FN1 exon 35 = settings: FN1 exon 35, sequence GAGAgtaagt; GM03813 cells, 24 hours; without compound 100
Experimental: as §1

GALC exon 5 = settings: GALC exon 5, sequence TGGAgttagt; GM03813 cells, 24 hours; without compound 90
Experimental: as §1

PRKDC exon 11 = settings: PRKDC exon 11, sequence AGGAgtatgt; GM03813 cells, 24 hours; without compound 100
Experimental: as §1

COL1A1 exon 30 = settings: COL1A1 exon 30, sequence AAGAgtaagt; GM03813 cells, 24 hours; without compound 60
Experimental: as §1

PARP1 exon 22 = settings: PARP1 exon 22, sequence ACGAgtatcc; GM03813 cells, 24 hours; without compound 100
Experimental: as §1

CCN1CCC(c2cc(C)c3nc(-c4cc5c(C)nc(C)cn5n4)cc(=O)n3c2)CC1 [Compound 702]
% Inclusion of Exon with Compound (LARP7 exon 1): 10%
% Inclusion of Exon with Compound (COL5A2 exon 13): no change
% Inclusion of Exon with Compound (PRKDC exon 51): no change
% Inclusion of Exon with Compound (GGCT exon 2): 95%
% Inclusion of Exon with Compound [1]: 90%
% Inclusion of Exon with Compound (FADS2 exon 6): no change
% Inclusion of Exon with Compound (COL1A1 exon 32): no change
% Inclusion of Exon with Compound (COL5A2 exon 32): no change
% Inclusion of Exon with Compound (VPS29 exon 2): 100%
% Inclusion of Exon with Compound (COL1A2 exon 21): no change
% Inclusion of Exon with Compound (COL1A2 exon 30): no change
% Inclusion of Exon with Compound (LARP7 exon 2): 40%
% Inclusion of Exon with Compound (COL3A1 exon 46): no change
% Inclusion of Exon with Compound (COL1A1 exon 11): no change
% Inclusion of Exon with Compound (COL5A2 exon 34): no change
% Inclusion of Exon with Compound (RCC 1 exon 4): no change
% Inclusion of Exon with Compound (APLP2 exon 7): 30%
% Inclusion of Exon with Compound (ARMCX6 exon 3): no change
% Inclusion of Exon with Compound (LAMA2 exon 5): no change
% Inclusion of Exon with Compound (COL5A2 exon 35): no change
% Inclusion of Exon with Compound [2]: 10%
% Inclusion of Exon with Compound (MADD exon 21): 5%
% Inclusion of Exon with Compound (COL3A1 exon 10): no change
% Inclusion of Exon with Compound (DIAPH3 exon 11): no change
% Inclusion of Exon with Compound (COL5A2 exon 49): no change
% Inclusion of Exon with Compound (COL1A1 exon 5): no change
% Inclusion of Exon with Compound (COL1A2 exon 22): no change
% Inclusion of Exon with Compound (ERGIC3 exon 8): 10%
% Inclusion of Exon with Compound (COL1A1 exon 46): no change
% Inclusion of Exon with Compound (SMN2 exon 7): 100%
% Inclusion of Exon with Compound (STRN3 exon 8): 100%
% Inclusion of Exon with Compound (SMN2 exon 5): no change
% Inclusion of Exon with Compound (FN1 exon 35): no change
% Inclusion of Exon with Compound (GALC exon 5): no change
% Inclusion of Exon with Compound (PRKDC exon 11): no change
% Inclusion of Exon with Compound (COL1A1 exon 30): 90%
% Inclusion of Exon with Compound (PARP1 exon 22): no change
